Reference: patent US20260306464A1, “LINAPRAZAN GLURATE FOR TREATING GASTROESOPHAGEAL REFLUX DISEASE (GERD)” (Cinclus Pharma Holding AB (publ), priority 2023, published 2026)

Experiments:
intragastric pH = experiment: Phase I: plasma concentration of linaprazan vs. intragastric pH; assay type: in vivo, human; settings: Phase I studies
Source text: The plasma concentration of linaprazan glurate is only very low and difficult to determine, but the plasma concentration of linaprazan may be determined instead.

[1] = LEED study: heartburn assessed by mRESQ-eDiary; assay type: in vivo, human; settings: for % at most mild symptoms 24-hour days (mean) / % heartburn-free 24-hour days (mean) / Patients (%) totally free from heartburn / Patients (%) with at most mild heartburn / Patients (%) with non-mild heartburn: week 4, erosive patients all LA grades
Source text: Relief of reflux-related symptoms may be assessed based on the modified Reflux Symptom Reflux Questionnaire-electronic Diary (mRESQ-eDiary), which is an electronic symptom diary developed for use in partial responders to proton pump inhibitors. mRESQ-eD has three domains (i.e., heartburn, other GERD signs/symptoms and regurgitations/reflux) and eight items (Andrae et al., Clin. Transl. Gastroenterol. 2020, 11(1): e00117).
The study was a randomized, double-blind, active comparator-controlled study with a parallel group design including four arms with linaprazan glurate and one arm with lansoprazole. Pharmacokinetic (PK) blood sampling pre-dose, close before the first and the second dose administration was performed at Day 7, Day 14 and Day 28 visits days in all patients. 248 patients with erosive esophagitis due to GERD LA grade C or D and patients with erosive esophagitis due to GERD LA grade A or B with at least partial symptom response but still endoscopically unhealed after 8 weeks history of standard treatment healing course with PPI, were randomized.
Randomization to one of the treatments with linaprazan glurate 25 mg, 50 mg, 75 mg, 100 mg twice daily (BID), or lansoprazole 30 mg once daily (QD) was based on a 1:1:1:1:1 scheme. One site could not enroll more than about 20% of the overall number of patients (48 patients per site).
The duration of each patient's participation in the study, including screening, blind treatment period and open-label treatment period, was approximately 60 days. The patients were randomized for 4 weeks (28 days, −2/+5 days) of double-blind treatment and were provided with IMP for 35 days (including one additional blister pack dispensed at Visit 2/Day 0) to allow for treatment up to the visit window. […] Following the endoscopic evaluation, all patients received subsequent 4 weeks of open-label treatment with lansoprazole 30 mg QD. Repeated symptom evaluation to detect symptom pattern was assessed during this period.
Four doses of linaprazan glurate (25 mg, 50 mg, 75 mg, 100 mg, and dummies) were administered as tablets twice daily. The active comparator lansoprazole 30 mg and its dummy were administered as capsules once daily in the morning. The study drugs were taken with 100 mL of noncarbonated water at least 30 minutes prior to meals. The duration of double-blind treatment was 28 days −2/+5 days. To blind treatment, each patient received 2 tablets (containing doses of linaprazan glurate (LG) or its dummy) and one capsule (containing lansoprazole or its dummy) in the morning and 2 tablets (containing doses of linaprazan glurate (LG) or its dummy) in the evening, according to the scheme below:
A secondary objective of the study was the safety and tolerability of the four dose levels of linaprazan glurate and lansoprazole, with lansoprazole serving as the active comparator. Another secondary objective of the study was the reflux related symptom pattern during the initial 4 weeks treatment with four dose levels of linaprazan glurate and with lansoprazole, and the symptom pattern during the subsequent additional 4 weeks (weeks 5-8) open-label treatment with lansoprazole 30 mg QD. Heartburn-free 24-hour days and 24-hour days with at most mild heartburn symptoms were assessed based on modified eDiary (mRESQ-eD), including splits into day- and nighttime evaluations.
Reflux related symptoms were assessed based on a modified RESQ-eDiary (mRESQ-eD). Patients were asked to report every 12-hours, once before the morning dose and once before the evening dose of the Investigational Medicinal Product (IMP).

[2] = LEED study: safety and tolerability (adverse events); settings: for COVID-19 (%) / COVID-19 events / Constipation (%) / Constipation events / Headache (%) / Headache events / Nausea (%) / Nausea events: TEAE

## Cc1cccc(C)c1CNc1cc(C(=O)NCCOC(=O)CCCC(=O)O)cn2c(C)c(C)nc12 [linaprazan glurate, 5-{2-[({8-[(2,6-dimethylbenzyl)amino]-2,3-dimethylimidazo[1,2-a]pyridine-6-yl}carbonyl)-amino]ethoxy}-5-oxopentanoic acid]
Intragastric pH
  pH control: dose dependent
[1]; FAS Erosive, first week, morning and evening, LG 75 mg BID
  heartburn severity, rank among groups: lowest heartburn severity
[1]; FAS Erosive, week 1, LG 75 mg BID
  percentage of symptom free days (highest of groups): 33.3%
[1]; FAS Erosive, week 1 to 4, all LG groups
  heartburn-free days vs lansoprazole: more heartburn-free days
[1]; FAS Erosive, week 2, LG 75 mg BID
  percentage of symptom free days (highest of groups): 57.2%
[1]; FAS Erosive, week 3, LG 75 mg BID
  percentage of symptom free days (highest of groups): 62.6%
[1]; FAS Erosive, week 4, LG 100 mg BID
  percentage of symptom free days (highest of groups): 65.2%
[1]; FAS Erosive, week 5 open-label lansoprazole, former LG 75 mg group
  percentage of heartburn-free days (highest of groups): 72.6%
[1]; FAS Erosive, week 5 to 8 open-label (all on lansoprazole 30 mg QD), former LG groups
  heartburn-free days vs lansoprazole: more heartburn-free days
[1]; FAS Erosive, week 6 open-label lansoprazole, former LG 75 mg group
  percentage of heartburn-free days (highest of groups): 73.0%
[1]; FAS Erosive, week 7 open-label lansoprazole, former LG 25 mg group
  percentage of heartburn-free days (highest of groups): 81.9%
[1]; FAS Erosive, week 8 open-label lansoprazole, former LG 25 mg group
  percentage of heartburn-free days (highest of groups): 87.6%
[1]; FAS, first week, morning and evening, LG 75 mg BID
  severity grade of heartburn, rank among groups: lowest severity grade
[1]; FAS, week 1, LG 75 mg BID
  percentage of symptom free days (highest of groups): 29.2%
[1]; FAS, week 1 to 4, all LG groups
  heartburn-free days vs lansoprazole: more heartburn-free days
[1]; FAS, week 2, LG 75 mg BID
  percentage of symptom free days (highest of groups): 52.9%
[1]; FAS, week 4, LG 100 mg BID
  percentage of symptom free days (highest of groups): 62.2%
[1]; FAS, week 5 open-label lansoprazole, former LG 75 mg group
  percentage of heartburn-free days (highest of groups): 69.6%
[1]; FAS, week 5 to 8 open-label (all on lansoprazole 30 mg QD), former LG groups
  heartburn-free days vs lansoprazole: more heartburn-free days
[1]; FAS, week 7 open-label lansoprazole, former LG 25 mg group
  percentage of heartburn-free days (highest of groups): 79.4%
[1]; FAS, week 8 open-label lansoprazole, former LG 25 mg group
  percentage of heartburn-free days (highest of groups): 82.4%
[1]; LA Grade A/B, week 1 to 3, LG 75 mg BID
  heartburn-free days, rank among groups: highest percentage of heartburn-free days
[1]; LA Grade A/B, week 5 open-label lansoprazole, former LG 75 mg group
  heartburn-free days, rank among groups: highest percentage of heartburn-free days
[1]; LA Grade A/B, weeks 7 and 8 open-label lansoprazole, former LG 25 mg group
  heartburn-free days, rank among groups: highest percentage of heartburn-free days
[1]; LA Grade C/D, week 1 and 4, LG 50 mg BID
  heartburn-free days, rank among groups: highest percentage of heartburn-free days
[1]; LA Grade C/D, week 2, LG 75 mg BID
  heartburn-free days, rank among groups: highest percentage of heartburn-free days
[1]; LA Grade C/D, week 3, LG 100 mg BID
  heartburn-free days, rank among groups: highest percentage of heartburn-free days
[1]; LA Grade C/D, week 5 open-label lansoprazole, former LG 50 mg group
  heartburn-free days, rank among groups: highest percentage of heartburn-free days
[1]; LA Grade C/D, week 6 to 8 open-label lansoprazole, former LG 75 mg group
  heartburn-free days, rank among groups: highest percentage of heartburn-free days
[1]; LG 25 mg BID (N = 21)
  % at most mild symptoms 24-hour days (mean): 96%
  % heartburn-free 24-hour days (mean): 52%
  Patients (%) totally free from heartburn: 45%
  Patients (%) with at most mild heartburn: 97%
  Patients (%) with non-mild heartburn: 6%
[1]; LG 50 mg BID (N = 27)
  % at most mild symptoms 24-hour days (mean): 96%
  % heartburn-free 24-hour days (mean): 56%
  Patients (%) totally free from heartburn: 44%
  Patients (%) with at most mild heartburn: 97%
  Patients (%) with non-mild heartburn: 6%
[1]; LG 75 mg BID (N = 20)
  % at most mild symptoms 24-hour days (mean): 97%
  % heartburn-free 24-hour days (mean): 56%
  Patients (%) totally free from heartburn: 50%
  Patients (%) with at most mild heartburn: 87%
  Patients (%) with non-mild heartburn: 13%
[1]; LG 100 mg BID (N = 19)
  % at most mild symptoms 24-hour days (mean): 100%
  % heartburn-free 24-hour days (mean): 76%
  Patients (%) totally free from heartburn: 63%
  Patients (%) with at most mild heartburn: 92%
  Patients (%) with non-mild heartburn: 8%
[2]; LG 25-100 mg BID
  safety data vs lansoprazole: comparable to that of lansoprazole
  tolerability: generally well tolerated
[2]; LG 25 mg BID
  COVID-19 (%): 2.0%
  COVID-19 events: 1 events
  Constipation (%): 3.9%
  Constipation events: 2 events
  Headache (%): 2.0%
  Headache events: 1 events
  Nausea (%): 2.0%
  Nausea events: 1 events
[2]; LG 50 mg BID
  COVID-19 (%): 4.2%
  COVID-19 events: 2 events
  Constipation (%): 2.1%
  Constipation events: 1 events
  Headache (%): 6.3%
  Headache events: 3 events
  Nausea (%): 0.0%
  Nausea events: 0 events
[2]; LG 75 mg BID
  COVID-19 (%): 1.9%
  COVID-19 events: 1 events
  Constipation (%): 3.8%
  Constipation events: 2 events
  Headache (%): 1.9%
  Headache events: 1 events
  Nausea (%): 0.0%
  Nausea events: 0 events
[2]; LG 100 mg BID
  COVID-19 (%): 8.5%
  COVID-19 events: 4 events
  Constipation (%): 0.0%
  Constipation events: 0 events
  Headache (%): 2.1%
  Headache events: 1 events
  Nausea (%): 0.0%
  Nausea events: 0 events
